Test results taken from PubChem BioAssay AID2060486 (Molecular Pharmacology Branch, DTP, NCI, 2025).
Where “and” joins values, the source holds several entries; their conditions need not be identical. Identical values can stand only once.

System: IGROV1 complex spheroids (HUVEC, MSC), viability % test/control
Assay: Anticancer human tumor IGROV1 cell line growth inhibition [GQUAD];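 also: spheroids exposed to compounds for 7 days before readout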
Details: for viability, T/C: stronger effect = lower value
Excerpt: DNA G-quadruplex Stabilizer Agents in Combinations in Complex Spheroids
A high-throughput screen of multi-cell type tumor spheroids was designed to identify active combinations of DNA G-quadruplex stabilizer agents and targeted small molecules. Complex spheroids include a stromal component modeled by human endothelial cells (HUVEC) and fibroblasts modeled by human mesenchymal stem cells (MSCs). The concentration ranges selected for each drug and investigational agent were based upon clinically achievable concentrations if the clinical Cmax of the agent was known.
Compounds. The drugs and investigational agents: pidnarulex (CX-5461; NSC782164), APTO-253 (NSC789042), BRACO-19 (NSC847499), peposertib (NSC802822), ceralasertib (NSC780249), elimusertib (NSC800525), camonsertib (NSC841442), AZD-1390 (NSC803789), olaparib (NSC753686), talazoparib (NSC767125), ART-558 (NSC835418), sotorasib (NSC818433), MRTX-1133 (NSC836407), SN-38 (NSC673596), topotecan (NSC609699), etoposide (NSC141540), doxorubicin (NSC123127), gemcitabine (NSC613327), 5-fluorouracil (NSC19893), paclitaxel (NSC125973), vemurafenib (NSC761431), panobinostat (NSC761190), R-306465 (JNJ-16241199; NSC773264), adavosertib (NSC754352), TP-3654 (NSC805149), carboplatin (NSC241240), KSQ-4279 (NSC840948), and staurosporine (NSC755774) were obtained from the National Cancer Institute (NCI) Developmental Therapeutics Program Chemical Repository (34). The FDA-approved anticancer drug set is available from the NCI Developmental Therapeutics Program. […] The stock solutions were prepared in dimethyl sulfoxide (DMSO, Sigma-Aldrich, St. Louis, MO, cat. D2650) at 800-fold the tested concentration and stored at -70 degrees C prior to their use. All drugs and investigational agents were tested over a range starting from a high concentration at or near the clinical Cmax and decreasing in half-log increments. If the clinical Cmax for an agent had not been determined, the highest concentration tested was 10 microM.
2.3 Cell Culture. All cells were maintained in an incubator at 37 degrees C and 5% CO2 with 95% humidity. The PDC lines were cultured according to standard operating procedures established by the NCI PDMR. All PDCs were thawed and cultured in Matrigel-coated flasks prepared with a working solution of 1X Ham's F-12 nutrient mix, without supplementation (Invitrogen, cat. 11765054), 100 U/mL penicillin-streptomycin (Invitrogen, cat. 15140122), and 2.5% Matrigel (Corning Inc., cat. 354248) for the first three passages. The 857933-349-R-J2-PDC line was cultured in 6C/Colon 1B media, which includes advanced DMEM/F-12 (Thermo Fisher Scientific, cat. 12634028), 10 mM HEPES (Thermo Fisher Scientific, cat. 15630080), 1X GlutaMAX supplement (Thermo Fisher Scientific, cat. 35050061), 0.1 mg/mL primocin (InvivoGen, cat. ant-pm-2), 10% defined fetal bovine serum, heat inactivated (HyClone Laboratories Inc., cat. SH30070.03HI), 50% L-WRN conditioned media (ATCC, cat. CRL-3276), 1.25 mM N-Acetyl-L-cysteine (Sigma-Aldrich, cat. A9165), 10 mM nicotinamide (Sigma-Aldrich, cat. N0636), 1X B-27 supplement (Thermo Fisher Scientific, cat. 17504044), 1X N-2 supplement (Thermo Fisher Scientific, cat. 17502048), 10 microM Y-27632 dihydrochloride (Tocris Bioscience, cat. 1254), and 50 ng/mL human EGF recombinant protein (Thermo Fisher Scientific, cat. PHG0311). The 485176-168-R4-J1-PDC line was cultured in Panc media, which includes all 6C/Colon 1B media components plus 100 ng/mL human FGF-10 (Thermo Fisher Scientific, cat. 100-26), 500 nM SB-431542 (Selleckchem, cat. S1067), and gastrin (Tocris, cat. 3006).
[…]

[1] = curve of first compound, second compound 0.0316 µM
[2] = curve of first compound, second compound 0.1 µM
[3] = curve of first compound, second compound 0.316 µM
[4] = curve of first compound, second compound 1 µM
[5] = curve of first compound, second compound 3.16 µM
[6] = curve of first compound, second compound 10 µM
[7] = second compound 0.0316 µM, first compound 0.0316 µM
[8] = second compound 0.0316 µM, first compound 0.1 µM
[9] = second compound 0.0316 µM, first compound 0.316 µM
[10] = second compound 0.0316 µM, first compound 1 µM
[11] = second compound 0.0316 µM, first compound 3.16 µM
[12] = second compound 0.0316 µM, first compound 10 µM
[13] = second compound 0.1 µM, first compound 0.0316 µM
[14] = second compound 0.1 µM, first compound 0.1 µM
[15] = second compound 0.1 µM, first compound 0.316 µM
[16] = second compound 0.1 µM, first compound 1 µM
[17] = second compound 0.1 µM, first compound 3.16 µM
[18] = second compound 0.1 µM, first compound 10 µM
[19] = second compound 0.316 µM, first compound 0.0316 µM
[20] = second compound 0.316 µM, first compound 0.1 µM
[21] = second compound 0.316 µM, first compound 0.316 µM
[22] = second compound 0.316 µM, first compound 1 µM
[23] = second compound 0.316 µM, first compound 3.16 µM
[24] = second compound 0.316 µM, first compound 10 µM
[25] = second compound 1 µM, first compound 0.0316 µM
[26] = second compound 1 µM, first compound 0.1 µM
[27] = second compound 1 µM, first compound 0.316 µM
[28] = second compound 1 µM, first compound 1 µM
[29] = second compound 1 µM, first compound 3.16 µM
[30] = second compound 1 µM, first compound 10 µM
[31] = second compound 3.16 µM, first compound 0.0316 µM
[32] = second compound 3.16 µM, first compound 0.1 µM
[33] = second compound 3.16 µM, first compound 0.316 µM
[34] = second compound 3.16 µM, first compound 1 µM
[35] = second compound 3.16 µM, first compound 3.16 µM
[36] = second compound 3.16 µM, first compound 10 µM
[37] = second compound 10 µM, first compound 0.0316 µM
[38] = second compound 10 µM, first compound 0.1 µM
[39] = second compound 10 µM, first compound 0.316 µM
[40] = second compound 10 µM, first compound 1 µM
[41] = second compound 10 µM, first compound 3.16 µM
[42] = second compound 10 µM, first compound 10 µM

Q: Which results are given for `CC1COCCN1c1cc(C2(O)CC3CCC(C2)O3)c2cnn(-c3ccn[nH]3)c2n1` (stereo unspecified) + Cc1[nH]c2ccc(F)cc2c1-c1nc2c3cccnc3c3ncccc3c2[nH]1?
A: IC50 [1]: 37.6 nM; IC50 [2]: 42.3 nM; IC50 [3]: < 31.6 nM; IC50 [4]: < 31.6 nM; IC50 [5]: < 31.6 nM; IC50 [6]: < 31.6 nM; viability, T/C [7]: 55.6%; viability, T/C [8]: 18.9%; viability, T/C [9]: 7.44%; viability, T/C [10]: 4.8%; viability, T/C [11]: 3.59%; viability, T/C [12]: 2.02%; viability, T/C [13]: 61%; viability, T/C [14]: 17.7%; viability, T/C [15]: 8.01%; viability, T/C [16]: 6.5%; viability, T/C [17]: 3.58%; viability, T/C [18]: 1.71%; viability, T/C [19]: 21.6%; viability, T/C [20]: 7.64%; viability, T/C [21]: 4.88%; viability, T/C [22]: 3.7%; viability, T/C [23]: 3.28%; viability, T/C [24]: 1.86%; viability, T/C [25]: 3%; viability, T/C [26]: 3.91%; viability, T/C [27]: 3.25%; viability, T/C [28]: 3.03%; viability, T/C [29]: 3.34%; viability, T/C [30]: 1.4%; viability, T/C [31]: 3.59%; viability, T/C [32]: 4.2%; viability, T/C [33]: 3.24%; viability, T/C [34]: 3.06%; viability, T/C [35]: 3.02%; viability, T/C [36]: 1.16%; viability, T/C [37]: 3.5%; viability, T/C [38]: 2.96%; viability, T/C [39]: 4.38%; viability, T/C [40]: 2.77%; viability, T/C [41]: 3%; viability, T/C [42]: 1.15%

Q: Which viability, T/C (compound 0.0316 µM) does the source give for `CC(=O)O[C@H]1C(=O)[C@@]2(C)[C@H]([C@H](OC(=O)c3ccccc3)[C@]3(O)C[C@H](OC(=O)[C@H](O)[C@@H](NC(=O)c4ccccc4)c4ccccc4)C(C)=C1C3(C)C)[C@]1(OC(C)=O)CO[C@@H]1C[C@@H]2O` here?
A: 5.95% and 6.39% and 7.02%

Q: And the viability, T/C (compound 0.1 µM)?
A: 6.41% and 7.03% and 6.33%

Q: And the viability, T/C (compound 0.316 µM)?
A: 5.74% and 6.73% and 6.26%

Q: What about the viability, T/C (compound 1 µM) of the same molecule?
A: 5.25% and 5.94% and 5.15%

Q: What about the viability, T/C (compound 3.16 µM) of the same molecule?
A: 5.64% and 4.86% and 4.9%

Q: What about the viability, T/C (compound 10 µM) of the same molecule?
A: 4.25% and 4.95% and 4.52%

Q: What about the IC50 (curve of compound) of the same molecule?
A: < 31.6 nM

Q: Which results are given for `CC1COCCN1c1cc(C2(O)CC3CCC(C2)O3)c2cnn(-c3ccn[nH]3)c2n1` (stereo unspecified) + Cc1cnc(CNC(=O)c2c(=O)c3ccc(N4CCCN(C)CC4)nc3n3c2sc2ccccc23)cn1?
A: IC50 [1]: < 31.6 nM; IC50 [2]: < 31.6 nM; IC50 [3]: < 31.6 nM; IC50 [4]: < 31.6 nM; IC50 [5]: < 31.6 nM; IC50 [6]: < 31.6 nM; viability, T/C [7]: 13.8%; viability, T/C [8]: 8.52%; viability, T/C [9]: 5.86%; viability, T/C [10]: 3.91%; viability, T/C [11]: 3.41%; viability, T/C [12]: 2.21%; viability, T/C [13]: 10.6%; viability, T/C [14]: 7.17%; viability, T/C [15]: 5.58%; viability, T/C [16]: 4.56%; viability, T/C [17]: 3.63%; viability, T/C [18]: 2.02%; viability, T/C [19]: 8.26%; viability, T/C [20]: 6.06%; viability, T/C [21]: 5.61%; viability, T/C [22]: 4.38%; viability, T/C [23]: 2.92%; viability, T/C [24]: 2.02%; viability, T/C [25]: 5.97%; viability, T/C [26]: 6.1%; viability, T/C [27]: 5.48%; viability, T/C [28]: 3.78%; viability, T/C [29]: 3.09%; viability, T/C [30]: 1.97%; viability, T/C [31]: 5.79%; viability, T/C [32]: 6.38%; viability, T/C [33]: 5%; viability, T/C [34]: 2.96%; viability, T/C [35]: 2.76%; viability, T/C [36]: 1.84%; viability, T/C [37]: 5.85%; viability, T/C [38]: 5.61%; viability, T/C [39]: 4.3%; viability, T/C [40]: 4.69%; viability, T/C [41]: 3.15%; viability, T/C [42]: 1.81%
